Columns and labels:
Assay type in all cases: cell-based
[1] = tested on: wild type NL4-3 virus (HIV-1) in HeLa-p4 cells; experiment: HeLa-p4 single-cycle HIV-1 infectivity, beta-galactosidase CPRG test; conditions: Human immunodeficiency virus 1, NL43, HeLaP4, 48 hours after infection, control = NL4-3 virus alone; for activity at 50 µM: read-out: Hela-p4 CPRG 50 μM; for activity at 100 µM: read-out: Hela-p4 CPRG 100 μM
Method: (§1) HeLa-p4 cells are HeLa CD4 LTR-LacZ wherein LacZ expression is induced by the trans-activating protein Tat of HIV, making possible the precise quantification of HIV-1 infectivity from a single replication cycle. HeLa-CD4 cells growing exponentially at a density of 1×10^4/mL were placed in 96-well plates and infected the following day with 1 ng of HIV p24 antigen in the presence of different concentrations of compounds. The titles for a single cycle of the viruses were determined 48 hours after infection by quantifying the beta-galactosidase activity in lysates P4 by colorimetric test (CPRG, Promega) based on the cleavage of chlorophenol red-beta-D-galactopyranoside (CPRG) by beta-galactosidase. A cell viability assay measuring the absorbance at […] using the yellow tetrazolium reagent MTS [[…]] (Promega) was carried out.
(§2) For the helap4 cells experiments, the efficacy of the compounds is determined in comparison with control cells containing wild type NL4-3 virus alone (i.e. without any added compound) and is expressed as percentage of control. Then, the viral replication was increased for several compounds at the 50 and 100 μM concentrations with an absence of cytotoxic effects at the same concentrations (MTS test) (table 1).

J-Lat cells = experiment: J-Lat cells, percentage of GFP-positive cells by cytometry; conditions: 24 h, compound alone
Method: The J-Lat were grown in RPMI 1640 medium (Gibco-BRL) supplemented with 10% fetal bovine serum, 50 U/ml of penicillin, […] of streptomycin at 37 uC in a humidified 95% air/5% CO2 atmosphere. The cells were plated at 5.105 cells in a 96 well-plate. TNF ? was purchased from Immunosource. SAHA (suberoylanilide hydroxamic acid), prostratin (12-deoxyphorbol-13-acetate) and vorinostat were obtained from Sigma-Aldrich. The J-Lat cells were treated for 24 h with the different compounds alone. The cells were washed twice in PBS, re-suspended in PBS containing 4% paraformaldehyde and fixed for 30 min. Cells were next washed and re-suspended in PBS. The percentage of GFP-positive cells was measured with a LSRFortessa cytometer (Becton-Dickinson) using FACSDiva Version 6.1.3 according to the manufacturer's instructions.
The results for the J-Lat cells experiments are expressed as a percentage of the living fluorescent cells. In this model, some slight increase of viral production measured by fluorescence are quantified (table 1).

HeLa-p4 cells = experiment: Cell viability assay (MTS) on HeLa-p4 cells
Method: as §1, §2

Compound	activity at 50 µM [1]	activity at 100 µM [1]	activity at 200 µM [1]	J-lat 50 μM (J-Lat cells)	Hela-p4 MTS 50 μM (HeLa-p4 cells; cell viability)	Hela-p4 MTS 100 μM (HeLa-p4 cells; cell viability)	Hela-p4 MTS 200 μM (HeLa-p4 cells; cell viability)	J-lat 100 μM (J-Lat cells)	Hela-p4 MTS 50 μM (HeLa-p4 cells; human)	Hela-p4 MTS 100 μM (HeLa-p4 cells; human)
COc1cccc(CCN2C[C@H](N)C[C@H](N)C2)c1 [ECO01-026-C2, 1-(3-methoxyphenethyl)piperidine-3,5-diamine]	116%	169%	234%	3.3 percentage of the living fluorescent cells	106	98	72			
N[C@@H]1C[C@H](N)CN(c2cccc(C(=O)Nc3ccccc3)c2)C1 [ECO02-003-C, 3-(3,5-diaminopiperidin-1-yl)-N-phenylbenzamide]	140%	118%		0.4 percentage of the living fluorescent cells	105	60		0.5 percentage of the living fluorescent cells		
N[C@H]1CC(OCc2cn(CC(=O)c3cc4ccc3CCc3ccc(cc3)CC4)nn2)[C@@H](N)C1 (stereo partly drawn) [RA 20]	167%	188%		0.1 percentage of the living fluorescent cells	108	97		1.1 percentage of the living fluorescent cells		
COC(=O)N[C@@H]1C[C@H](NC(=O)OC)CN(CCc2cccc(OC)c2)C1 [ECO02-074-C, dimethyl (1-(3-methoxyphenethyl)piperidine-3,5-diyl)dicarbamate]	139%	186%	326%	0.4 percentage of the living fluorescent cells	101	91	70			
COc1cccc(CCN2C[C@H](NS(C)(=O)=O)C[C@H](NS(C)(=O)=O)C2)c1 [ECO02-073-B2, N,N′-(1-(3-methoxyphenethyl)piperidine-3,5-diyl)dimethanesulfonamide]	103%	127%	253%	0.6 percentage of the living fluorescent cells	96	94	69			
N[C@@H]1C[C@H](N)CN(C2Cc3ccccc3C2)C1 [ECO01-041-C, 1-(2,3-dihydro-1H-inden-2-yl)piperidine-3,5-diamine]	114%	131%		1.0 percentage of the living fluorescent cells	98	84		0.1 percentage of the living fluorescent cells		
COc1cccc(CCN2C[C@H](NC(C)=O)C[C@H](NC(C)=O)C2)c1 [ECO02-072-C, N,N′-(1-(3-methoxyphenethyl)piperidine-3,5-diyl)diacetamide]	107%	167%	242%	2.1 percentage of the living fluorescent cells	111	98	84			
N[C@@H]1C[C@H](N)CN(C23CC4CC(CC(C4)C2)C3)C1 [AB541, 1-(adamantan-1-yl)piperidine-3,5-diamine]	158%	157%		0.1 percentage of the living fluorescent cells				10.5 percentage of the living fluorescent cells	141	123
N[C@@H]1C[C@H](N)CN(CCCc2ccccc2)C1 [ECO01-035-C, 1-(3-phenylpropyl)piperidine-3,5-diamine]	169%	147%		1.5 percentage of the living fluorescent cells	105	88		2.8 percentage of the living fluorescent cells		
COc1cccc(N2C[C@H](N)C[C@H](N)C2)c1 [ECO01-055-C, 1-(3-methoxyphenyl)piperidine-3,5-diamine]	111%	153%		0.4 percentage of the living fluorescent cells	94	94		0.1 percentage of the living fluorescent cells		
COc1ccc(CCN2C[C@H](N)C[C@H](N)C2)cc1 [ECO02-025-C, 1-(4-methoxyphenethyl)piperidine-3,5-diamine]	90%	123%		0.3 percentage of the living fluorescent cells	112	82		0.3 percentage of the living fluorescent cells		
N[C@@H]1C[C@H](N)CN(c2ccc(NC(=O)c3ccccc3)c(O)c2)C1 [AB-120, N-(4-((3S,5R)-3,5-diaminopiperidin-1-yl)-2-hydroxyphenyl)benzamide]	144%	230%	215%	0.1 percentage of the living fluorescent cells	94	90	55	12.3 percentage of the living fluorescent cells		
COc1cc(N2C[C@H](N)C[C@H](N)C2)cc(OC)c1OC [AB-116, (3S,5R)-1-(3,4,5-trimethoxyphenyl)piperidine-3,5-diamine]	135%	172%	248%	0 percentage of the living fluorescent cells	96	97	86	0.5 percentage of the living fluorescent cells		
COc1ccc(CCN2C[C@H](N3C[C@H](N)C[C@H](N)C3)C[C@H](N3C[C@H](N)C[C@H](N)C3)C2)cc1OC [AB-103, (3S,3′R,3″S,5R,5′S,5″R)-1′-(3,4-dimethoxyphenethyl)-[1,3′:5′,1″-terpiperidine]-3,3″,5,5″-tetraamine]	125%	143%		0.2 percentage of the living fluorescent cells	83	84		0.4 percentage of the living fluorescent cells		
COc1ccc(CCN2C[C@H](N)C[C@H](N)C2)cc1OC [AB-77, (3S,5R)-1-(3,4-dimethoxyphenethyl)piperidine-3,5-diamine]	165%	184%	310%	0.1 percentage of the living fluorescent cells	93	97	69	0.8 percentage of the living fluorescent cells		
COc1cccc(CCN2C[C@H](NC(=O)OC(C)(C)C)C[C@H](NC(=O)OC(C)(C)C)C2)c1 [ECO03-03-C, di-tert-butyl (1-(3-methoxyphenethyl)piperidine-3,5-diyl)dicarbamate]	148%	341%	440%	0.4 percentage of the living fluorescent cells	105	104	104			
N[C@@H]1C[C@H](N)CN(c2ccc3[nH]ccc3c2)C1 [AB-86, (3S,5R)-1-(1H-indol-5-yl)piperidine-3,5-diamine]	80%	66%		0.1 percentage of the living fluorescent cells	81	74		2.6 percentage of the living fluorescent cells		
N[C@@H]1C[C@H](N)CN(S(=O)(=O)c2ccccc2)C1 [ECO03-001-B, 1-(phenylsulfonyl)piperidine-3,5-diamine]	118%	170%	360%	0.6 percentage of the living fluorescent cells	97	104	109			

— patent US20170183306A1, “CYCLIC COMPOUNDS HAVING A 1,3 DIAMINO-FUNCTIONALITY FOR USE IN THE TREATMENT OF HIV INFECTION” (Universite Paris Descartes, priority 2014, published 2017)
